Experimental data taken from PubChem BioAssay (NCI).
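How tested: cells in 96-well plates exposed to compound for 48 hours at five concentrations. The concentration for 50% growth inhibition is given as GI50. TGI: concentration producing complete growth inhibition.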

What was measured:
Assay in all cases: NCI tumour cell line growth inhibition, 48 h
MOLT-4 leukemia = tested on: MOLT-4 leukemia
UACC-62 melanoma = tested on: UACC-62 melanoma
UACC-257 melanoma = tested on: UACC-257 melanoma
NCI/ADR-RES ovarian = tested on: NCI/ADR-RES ovarian
MDA-MB-231 breast = tested on: MDA-MB-231 breast
TK-10 renal = tested on: TK-10 renal
CAKI-1 renal = tested on: CAKI-1 renal
MALME-3M melanoma = tested on: MALME-3M melanoma
SK-MEL-2 melanoma = tested on: SK-MEL-2 melanoma
KM12 colon = tested on: KM12 colon

Row | SMILES | TGI (MOLT-4 leukemia) [µM] | TGI (UACC-62 melanoma) [µM] | TGI (UACC-257 melanoma) [µM] | TGI (NCI/ADR-RES ovarian) [µM] | TGI (MDA-MB-231 breast) [µM] | TGI (TK-10 renal) [µM] | TGI (CAKI-1 renal) [µM] | TGI (MALME-3M melanoma) [µM] | TGI (SK-MEL-2 melanoma) [µM] | TGI (KM12 colon) [µM] | GI50 (MOLT-4 leukemia) [µM] | GI50 (UACC-62 melanoma) [µM] | GI50 (CAKI-1 renal) [µM] | GI50 (SK-MEL-2 melanoma) [µM] | GI50 (KM12 colon) [µM] | GI50 (UACC-257 melanoma) [µM] | GI50 (NCI/ADR-RES ovarian) [µM] | GI50 (MDA-MB-231 breast) [µM] | GI50 (TK-10 renal) [µM] | GI50 (MALME-3M melanoma) [µM]
1 | Cc1c2cnccc2c(C)c2c1c1ccccc1n2CCOC(=O)c1ccccc1 | 25.4 | 34.8 | 42 | 33 | > 100 | 40.9 | 28 | 28.8 | 31.8 | > 98 |  |  |  |  |  |  |  |  |  | 
2 | COc1ccc(-c2csc3c2-n2cccc2C3=O)cc1 | > 87.7 | > 100 |  | > 100 | > 100 | > 100 | > 100 | > 100 | > 79.9 |  | 0.0352 | 0.232 | 0.0528 | 0.0111 | 0.0133 |  |  |  |  | 
3 | ClC1=C(Cl)C(Cl)(C2(Cl)C(Cl)=C(Cl)C(Cl)=C2Cl)C(Cl)=C1Cl | 2.31 | 1.61 | 1.84 | 5.61 | 1.42 | 0.462 | 0.832 | 0.446 | 3.14 | 4.32 | 0.242 | 0.43 | 0.265 | 1.29 | 2.04 | 0.543 | 0.976 | 0.383 | 0.201 | 0.188
4 | CC(C)=CC[C@@H]1CC2(CC=C(C)C)C(=O)C(OC3(C(=O)c4ccccc4)C(=O)C4(CC=C(C)C)C[C@@H](CC=C(C)C)C(C)(C)C(CC=C(C)C)(C4=O)C3=O)(C(=O)c3ccccc3)C(=O)C(CC=C(C)C)(C2=O)C1(C)C (some centres undefined) | 4.51 | 1.98 | 3.77 | 5.67 | 4.12 | 8.04 | 5.95 | 2.18 | 3.04 | 6.13 | 1.3 | 0.878 | 1.49 | 1.01 | 1.65 | 1.4 | 1.6 | 1.49 | 1.54 | 0.901
5 | COC(=O)c1c2c(c(C)[n+]([O-])c1C)C(=O)C(NCc1ccc(OC)cc1)=CC2=O | 6.63 | 3.62 | 3.42 | 7.49 | 6.14 | 20.1 | 11.2 | 1.1 | 5.88 | 8.68 | 2.36 | 1.72 | 2.9 | 2.23 | 2.19 | 1.63 | 2.42 | 2.2 | 4.62 | 0.28
6 | CCCCn1c(=O)[nH]c(N)c([C@@H]2c3c([nH]c(=O)n(CCCC)c3=O)Oc3ccc4ccccc4c32)c1=O | 1.74 | 3.36 | 5.78 | 8.84 | 4.58 | 7.05 | 3.26 | 7.02 | 7.34 | 3.26 | 0.35 | 1.67 | 1.62 | 2.51 | 1.69 | 2.41 | 2.82 | 1.85 | 2.95 | 2.34
7 | COc1ccc(C2=NN(C(N)=S)C(c3ccc4c(c3)OCO4)C2)cc1 (centres undefined) | 34.5 | 21.1 | 68.5 | 12.6 | 65.7 | 9.54 | 8.91 | 43.9 | 38.9 | 5.19 | 3.02 | 3.79 | 2.6 | 3.12 | 2.27 | 3.96 | 2.9 | 4.71 | 2.47 | 3.62
8 | Cn1ncnc1[C@@H]1c2n[nH]c(=O)c3cc(F)cc(c23)N[C@H]1c1ccc(F)cc1 | > 100 | > 100 |  | > 100 | > 100 | > 100 | > 100 | > 100 | > 100 | > 100 | > 100 | > 100 | 91.5 | > 100 | > 100 |  | > 100 | > 100 | > 100 | > 100
9 | COc1cccc2c1nc(C(F)F)n2-c1nc(-c2ccc(NS(=O)(=O)CCN(C)C)cc2)nc(N2CCOCC2)n1 | 3.71 | 1.45 | 1.72 | 33.6 | 37.2 | 0.615 | 4.69 | 0.317 | 2.5 | 12.8 | 0.123 | 0.134 | 0.168 | 0.195 | 0.275 | 0.116 | 0.434 | 0.617 | 0.0597 | 0.0333
10 | CCN(Cc1ccc(OC)cc1)c1ccc(CO)c(Cl)c1 | 59.7 | 0.686 | 0.312 | 49.6 | 61.3 |  | > 36.3 | 38.4 | 20.2 | 44.7 | 21.6 | 0.0986 | 1.14 | 3.79 | 18.3 | 0.124 | 15 | 18.9 |  | 17
11 | COC(=O)N[C@H]1CCc2cc(OC)c(OC)c(OC)c2-c2ccc(SC)c(=O)cc21 | > 70.5 | > 100 | > 100 | > 100 | 29 | > 100 | > 100 | > 100 | > 100 | > 100 | < 0.01 | < 0.01 | < 0.0166 | 1.76 | < 0.01 | 50.7 | 0.0247 | < 0.01 | 13.1 | < 0.012
12 | COc1cc2cc(NCc3cccc(Cl)c3)nc(C)c2cc1OC | 30.4 | 5.41 | 19.3 | 22.3 | 16.6 | 36.6 | 24.4 | 23.8 | 12.6 | 15.8 | 3.21 | 0.498 | 2.7 | 1.56 | 2.62 | 4.61 | 2.02 | 1.18 | 4.15 | 10.3
13 | O=P1(NCCCl)OCCCN1CCCl (centres undefined) | 391 | 419 | 421 | 450 | > 500 | > 500 | 341 | 399 | 419 | 448 |  |  |  |  |  |  |  |  |  | 
